Activity calls are given as the source filed them. The calls are words filed in the database; no cut-off is given here. Where a SMILES comes first, the peptide text is derived from it. The star is where a group is joined. Cbz = O=C(OCc1ccccc1)*
Legend:
[1] = biological target: Cullin-4A (Mus musculus) (UniProt Q3TCH7); test: Inhibition of CUL4A in mouse MEF cells stably expressing FL FLAG-tagged DDB2 assessed as reduction in F-DDB2 degradation incubated for 2 hrs before irradiated with 10 J/m2 UV irradiation; format: cell-based
[2] = biological target: T1, Cullin-4A (Homo sapiens, UniProt Q13619); test: Inhibition of GST-tagged CUL4A/Rbxl ubiquitin ligase activity (unknown origin) assessed as reduction in reconstituted DDB1 ubiquitination in presence of ubiquitin, El, E2 and DDB1 incubated for 1 hr by Western blotting analysis
[3] = biological target: Cullin-4B (Homo sapiens) (UniProt Q13620); test: Inhibition of CUL4B in human MCF7 cells assessed as reduction in 3-methylcholanthrene-induced androgen receptor degradation at 50 uM; format: cell-based
[4] = biological target: T1, Cullin-4A; test: Inhibition of CUL4A in human HCT116 cells assessed as promotion of UV-damaged DNA repair by measuring enhancement of 6,4-photoproducts removal pre-incubated for 2 hrs before UV-irradiation by ELISA; format: cell-based
[5] = biological target: Cullin-4A (Mus musculus) (UniProt Q3TCH7); test: Inhibition of CUL4A in mouse MEF cells stably expressing FL FLAG-tagged DDB2 assessed as reduction in F-DDB2 degradation incubated for 2 hrs before irradiated with 10 J/m2 UV irradiation relative to control; format: cell-based
[6] = biological target: Cullin-1 (Homo sapiens) (UniProt Q13616); test: Inhibition of CUL1 in human U20S cells assessed as reduction in TNF-alpha-induced IkappaB-alpha degradation at 50 uM incubated for 2 hrs followed by TNFalpha stimulation for 15 mins by Western blotting analysis; format: cell-based
[7] = tested on: Proteasome; test: Inhibition of proteasome in mouse MEF cells stably expressing FL FLAG-tagged DDB2 assessed as reduction in F-DDB2 degradation incubated for 2 hrs before irradiated with 10 J/m2 UV irradiation

Sequence of Cullin-4B (Homo sapiens) (Q13620 whole entry): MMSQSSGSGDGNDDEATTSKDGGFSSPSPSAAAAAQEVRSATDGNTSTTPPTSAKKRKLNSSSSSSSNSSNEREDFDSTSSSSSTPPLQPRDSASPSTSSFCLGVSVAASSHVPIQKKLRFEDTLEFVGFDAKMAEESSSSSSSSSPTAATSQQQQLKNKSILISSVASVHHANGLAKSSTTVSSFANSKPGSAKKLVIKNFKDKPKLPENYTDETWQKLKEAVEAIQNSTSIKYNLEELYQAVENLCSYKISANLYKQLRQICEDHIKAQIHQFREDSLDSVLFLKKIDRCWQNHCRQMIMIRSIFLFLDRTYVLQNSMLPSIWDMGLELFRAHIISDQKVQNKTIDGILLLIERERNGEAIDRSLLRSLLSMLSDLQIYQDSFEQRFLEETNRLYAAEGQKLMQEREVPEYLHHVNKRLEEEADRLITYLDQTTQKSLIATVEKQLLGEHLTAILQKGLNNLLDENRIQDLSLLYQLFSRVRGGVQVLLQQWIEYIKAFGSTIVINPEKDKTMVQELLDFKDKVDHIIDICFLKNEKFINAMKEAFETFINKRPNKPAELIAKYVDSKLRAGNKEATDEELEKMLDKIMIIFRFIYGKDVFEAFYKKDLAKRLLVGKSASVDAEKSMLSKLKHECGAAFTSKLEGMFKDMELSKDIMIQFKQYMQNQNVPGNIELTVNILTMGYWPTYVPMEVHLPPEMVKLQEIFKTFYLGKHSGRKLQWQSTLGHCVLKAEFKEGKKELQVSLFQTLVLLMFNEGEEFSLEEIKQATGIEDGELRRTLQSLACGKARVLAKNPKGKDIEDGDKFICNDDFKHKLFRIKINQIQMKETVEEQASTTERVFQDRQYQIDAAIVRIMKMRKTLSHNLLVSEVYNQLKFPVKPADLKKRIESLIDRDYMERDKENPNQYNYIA
Sequence of Cullin-1 (Homo sapiens) (Q13616 whole entry): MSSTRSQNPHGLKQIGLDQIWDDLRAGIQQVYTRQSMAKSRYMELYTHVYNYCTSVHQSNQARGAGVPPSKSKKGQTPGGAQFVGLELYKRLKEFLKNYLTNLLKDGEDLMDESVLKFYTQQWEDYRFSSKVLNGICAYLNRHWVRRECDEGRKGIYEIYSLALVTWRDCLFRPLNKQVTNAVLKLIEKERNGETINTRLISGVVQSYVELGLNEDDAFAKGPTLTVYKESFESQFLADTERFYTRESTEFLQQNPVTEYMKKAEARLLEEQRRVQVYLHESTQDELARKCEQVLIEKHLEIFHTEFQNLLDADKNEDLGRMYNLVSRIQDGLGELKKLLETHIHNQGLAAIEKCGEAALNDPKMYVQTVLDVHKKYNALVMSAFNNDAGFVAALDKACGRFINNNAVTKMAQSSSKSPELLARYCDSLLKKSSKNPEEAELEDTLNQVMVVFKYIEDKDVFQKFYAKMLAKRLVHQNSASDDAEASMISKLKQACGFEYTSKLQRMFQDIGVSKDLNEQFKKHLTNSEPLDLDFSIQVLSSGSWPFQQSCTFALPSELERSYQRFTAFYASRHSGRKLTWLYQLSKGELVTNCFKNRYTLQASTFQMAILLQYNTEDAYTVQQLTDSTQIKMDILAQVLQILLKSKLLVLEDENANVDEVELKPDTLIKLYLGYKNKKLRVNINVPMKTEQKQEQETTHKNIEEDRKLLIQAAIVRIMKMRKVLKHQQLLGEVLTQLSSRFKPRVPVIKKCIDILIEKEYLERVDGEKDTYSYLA
T1 sequence (Q13619 whole entry): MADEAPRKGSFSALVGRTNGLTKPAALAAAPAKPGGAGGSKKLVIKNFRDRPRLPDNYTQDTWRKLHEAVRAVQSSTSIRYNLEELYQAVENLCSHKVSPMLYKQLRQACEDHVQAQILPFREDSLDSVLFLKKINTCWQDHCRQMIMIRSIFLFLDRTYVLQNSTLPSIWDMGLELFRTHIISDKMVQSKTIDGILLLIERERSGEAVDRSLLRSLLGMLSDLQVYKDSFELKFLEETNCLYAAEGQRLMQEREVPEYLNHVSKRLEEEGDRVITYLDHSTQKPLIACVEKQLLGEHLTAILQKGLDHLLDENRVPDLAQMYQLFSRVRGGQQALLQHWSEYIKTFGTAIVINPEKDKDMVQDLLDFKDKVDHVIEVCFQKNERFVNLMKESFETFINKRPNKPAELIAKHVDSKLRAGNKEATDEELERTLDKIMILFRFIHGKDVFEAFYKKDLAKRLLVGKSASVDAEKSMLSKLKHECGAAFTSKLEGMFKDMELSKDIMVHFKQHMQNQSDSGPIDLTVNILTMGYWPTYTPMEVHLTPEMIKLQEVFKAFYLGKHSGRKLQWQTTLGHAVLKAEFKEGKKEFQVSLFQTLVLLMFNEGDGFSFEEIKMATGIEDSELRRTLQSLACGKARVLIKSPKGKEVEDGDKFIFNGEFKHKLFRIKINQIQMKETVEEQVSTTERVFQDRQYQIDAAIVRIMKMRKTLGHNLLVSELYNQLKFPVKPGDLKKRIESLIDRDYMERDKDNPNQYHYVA
Sequence of Cullin-4A (Mus musculus) (Q3TCH7 whole entry): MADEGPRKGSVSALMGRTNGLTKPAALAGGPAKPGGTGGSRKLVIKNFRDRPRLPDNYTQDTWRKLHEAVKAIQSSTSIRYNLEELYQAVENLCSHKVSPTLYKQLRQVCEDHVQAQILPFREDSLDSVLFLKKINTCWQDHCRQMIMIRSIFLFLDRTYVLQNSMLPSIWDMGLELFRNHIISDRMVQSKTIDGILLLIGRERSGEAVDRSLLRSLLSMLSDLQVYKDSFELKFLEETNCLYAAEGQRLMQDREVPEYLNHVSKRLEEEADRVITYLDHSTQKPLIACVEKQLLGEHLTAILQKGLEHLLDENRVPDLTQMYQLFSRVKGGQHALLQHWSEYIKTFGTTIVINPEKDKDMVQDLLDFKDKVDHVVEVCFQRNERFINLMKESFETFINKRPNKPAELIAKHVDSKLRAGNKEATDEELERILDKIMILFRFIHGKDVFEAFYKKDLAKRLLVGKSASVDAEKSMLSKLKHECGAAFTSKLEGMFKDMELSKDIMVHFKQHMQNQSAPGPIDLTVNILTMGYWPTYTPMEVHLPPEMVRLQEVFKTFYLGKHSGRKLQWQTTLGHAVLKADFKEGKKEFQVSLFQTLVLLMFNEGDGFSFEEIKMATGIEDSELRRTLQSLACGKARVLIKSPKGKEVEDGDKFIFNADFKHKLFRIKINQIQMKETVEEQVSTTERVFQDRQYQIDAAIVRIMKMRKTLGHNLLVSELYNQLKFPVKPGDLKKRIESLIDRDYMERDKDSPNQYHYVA

| IC50 [2] | Compound | inhibition (active/inactive call) [1] | inhibition [3] | also measured |
| --- | --- | --- | --- | --- |
| – | N#CC1=C(N)SC(N)=C(C#N)C1c1ccccc1F | Active | inactive | inhibition [4]: Active; inhibition [5]: Dose-dependent effect; inhibition [6]: inactive |
| – | CCOC(=O)Oc1cc2oc(=O)sc2cc1Br | Active | – | – |
| – | O=c1oc2c(Br)c(O)c(Br)cc2s1 | Active | inactive | – |
| 690 µM | N#CC1=C(N)SC(N)=C(C#N)C1c1cc(Br)ccc1F | – | – | – |
| – | CCOC(=O)Oc1c(Cl)cc2oc(=O)sc2c1Cl | Active | – | – |
| – | COc1ccc(-c2c3c([nH]c(=S)c2C#N)CCCC3)cc1 | Active | inactive | inhibition [6]: inactive |
| – | N#CC1=C(N)SC(N)=C(C#N)C1c1cccs1 | Active | inactive | inhibition [6]: inactive |
| – | COC(=O)c1sc(=S)n(-c2ccc(F)cc2F)c1N | Active | – | – |
| – | COc1ccc(-c2c(C#N)c(S)nc3c2CCC3)cc1 | Active | inactive | inhibition [6]: inactive |
| > 50 µM | N#CC1=C(N)SC(N)=C(C#N)C1c1ccc(C(F)(F)F)cc1 | – | – | – |
| 0.997 µM | COc1ccc(-c2c3c([nH]c(=S)c2C#N)CCC3)cc1 | – | – | – |
| – | O=[N+]([O-])c1c(Cl)ncnc1N1CCCCC1CO (stereo not drawn) | Active | – | – |
| – | CC(C)C[C@@H](C=O)NC(=O)[C@H](CC(C)C)NC(=O)[C@H](CC(C)C)NC(=O)OCc1ccccc1 (Cbz-Leu-Leu-Leu-aldehyde) | – | – | inhibition [7]: Active |
| – | CC1(C)Cc2c(c(N3CCNCC3)[nH]c(=S)c2C#N)CO1 | Active | – | – |
| 2.68 µM | N#Cc1c(-c2ccncc2)c2c([nH]c1=S)CCCC2 | – | – | – |
| 3.68 µM | N#CC1=C(N)SC(N)=C(C#N)C1CCc1ccccc1 | – | – | – |
| – | Clc1ccc2nc(Cl)c3nnnn3c2c1 | Active | – | – |
| – | CCOC(=O)Oc1cc2oc(=O)sc2cc1Cl | Active | – | – |
| – | N#Cc1c(S)nc2c(c1-c1ccco1)CCCC2 | Active | inactive | inhibition [4]: Active; inhibition [5]: Dose-dependent effect; inhibition [6]: inactive |
| 0.554 µM | N#Cc1c(-c2ccco2)c2c([nH]c1=S)CCCC2 | – | – | – |
| – | COc1nsc(I)c1C#N | Active | inactive | – |
| – | N#CC1=C(N)SC(N)=C(C#N)C1c1ccco1 | Active | inactive | inhibition [6]: inactive |
| < 0.24 µM | COC(=O)Oc1c(Br)c(C)c2oc(=O)sc2c1Br | – | – | – |
| – | CC(=O)CN1C(=O)C(=O)c2cc(Br)ccc21 | Active | – | – |
| – | COC(=O)Oc1cc2oc(=O)sc2cc1Cl | Active | – | – |

| Compound | IC50 [2] | inhibition (active/inactive call) [1] | inhibition [3] | also measured |
| --- | --- | --- | --- | --- |
| COc1ccc(-c2nnc(S)n2-c2ccc(C)cc2)cc1 | 2.4 µM | Active | inactive | – |
| Sc1nnc(C2CC2)n1-c1ccc(Cl)c(Cl)c1 | 703 µM | Active | inactive | – |
| CC(C)c1nnc(S)n1-c1ccc(Cl)c(Cl)c1 | < 0.24 µM | Active | inactive | – |
| CNC(=O)Oc1c(Br)cc2sc(=O)oc2c1Br | < 0.24 µM | – | – | – |

From ChEMBL document CHEMBL4418496, “Inhibitors of crl4 ubiquitin ligase and uses thereof” (2014)
